Laboratory results taken from patent US9918939B2, “Formulation of Syk inhibitors” (Gilead Connecticut, Inc., priority 2013, dated 2018).
Structures can show the parent of a compound that is named as a salt.

Test: Stability studies of dry granulation tablet (HPLC, XRPD)
Assay type: physicochemical
Conditions: intragranular blend, milled granules, final blend of Formulation 1 (FIG. 4)

c1cn2cc(-c3ccc4cn[nH]c4c3)nc(Nc3ccc(N4CCOCC4)cc3)c2n1 [bis-mesylate salt of Formula IA]
form change by XRPD during processing: no form change
